Data: article PMC10725504, “The co-crystal structure of Cbl-b and a small-molecule inhibitor reveals the mechanism of Cbl-b inhibition” (Communications Biology, 2023)

Target: T1, Cbl-b (Homo sapiens, UniProt Q13191)
T1 construct: gene CBLB; TKBD-LHR-RING (38–427) and full-length (1–982)
Assay: FP-based displacement assay (fluorescent probe)
Assay type: binding

T1 sequence (Q13191 38-427): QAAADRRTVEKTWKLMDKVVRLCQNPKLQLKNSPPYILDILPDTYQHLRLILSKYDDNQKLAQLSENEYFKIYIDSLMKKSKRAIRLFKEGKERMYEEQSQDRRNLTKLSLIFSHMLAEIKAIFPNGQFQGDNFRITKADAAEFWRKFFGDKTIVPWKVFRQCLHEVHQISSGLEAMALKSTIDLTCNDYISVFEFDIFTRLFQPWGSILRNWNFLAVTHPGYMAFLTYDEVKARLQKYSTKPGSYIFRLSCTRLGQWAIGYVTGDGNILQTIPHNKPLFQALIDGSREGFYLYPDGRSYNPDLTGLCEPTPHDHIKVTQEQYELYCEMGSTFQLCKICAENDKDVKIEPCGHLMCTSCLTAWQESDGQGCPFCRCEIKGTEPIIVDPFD

## CC1=CC(C)=[N+]2C1=Cc1ccc(CCC(=O)NCCOCCOCCOCCNCc3ccc(C(=O)Nc4cccc([C@H](C)Cc5nncn5C)c4)nc3C3CC3)n1[B-]2(F)F [C7102]
  FP-based displacement assay (fluorescent probe): C7683 displaced binding of C7102 to both TKBD-LHR-RING and full-length proteins in a concentration dependent manner
